Some results are limits rather than exact numbers.

The subject of one assay is osteoclast precursors. As to the kind of experiment: cells. The assay is classed as cell-based. Conditions: read-out: Osteoclast assay.
For assay [1], the system named is phospho-FMS in THP-1 cells. The assay is described as follows: cells. Conditions: Homo sapiens, THP-1, read-out: pFMS inhibition in THP-1 cells.
Experimental: In a separate 96 well black clear bottom plate, one hundred and fifty thousand THP-1 cells were added per well in 100 μL in assay medium. Fifty microliters of diluted compound was then added to the cells. […] Lysates were prepared and used to perform the phospho-FMS ELISA as described by the manufacturer (catalog #DYC3268, R & D Systems, Minneapolis, Minn.). GraphPad Prism was used to calculate IC50 values obtained from data generated from the ELISA assay.
The target in assay [2] is unphosphorylated c-KIT kinase (uKIT, Seq. ID no. 2) (Homo sapiens, UniProt P10721). The assay is described as follows: biochemical.
unphosphorylated c-KIT kinase (uKIT, Seq. ID no. 2), sequence (P10721 with tags, fused parts or gaps): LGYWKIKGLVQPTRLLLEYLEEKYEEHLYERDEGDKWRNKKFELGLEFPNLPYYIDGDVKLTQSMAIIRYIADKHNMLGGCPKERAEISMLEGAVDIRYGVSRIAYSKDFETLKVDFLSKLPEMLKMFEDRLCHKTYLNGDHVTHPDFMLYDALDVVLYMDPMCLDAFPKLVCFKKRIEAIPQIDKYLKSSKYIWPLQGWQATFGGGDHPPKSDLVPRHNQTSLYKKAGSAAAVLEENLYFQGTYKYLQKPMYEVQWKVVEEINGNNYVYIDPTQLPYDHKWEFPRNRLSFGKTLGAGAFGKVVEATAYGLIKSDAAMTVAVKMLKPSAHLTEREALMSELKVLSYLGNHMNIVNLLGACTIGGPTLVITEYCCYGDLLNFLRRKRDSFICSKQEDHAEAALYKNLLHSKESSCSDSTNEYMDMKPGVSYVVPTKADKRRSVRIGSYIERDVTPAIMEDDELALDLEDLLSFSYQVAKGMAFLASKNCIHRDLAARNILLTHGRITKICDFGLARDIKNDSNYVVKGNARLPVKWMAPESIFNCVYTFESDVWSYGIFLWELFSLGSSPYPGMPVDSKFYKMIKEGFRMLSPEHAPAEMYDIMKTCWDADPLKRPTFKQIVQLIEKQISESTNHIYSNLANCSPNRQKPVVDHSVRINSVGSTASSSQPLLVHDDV
Experimental: uKit kinase (Seq. ID No. 2) Assay
In this assay, the oxidation of NADH (thus the decrease at A340 nm) was continuously monitored spectrophometrically. […] The inhibition reaction was started by mixing serial diluted test compound with the above reaction mixture. The absorption at 340 nm was monitored continuously for 4 hours at 30° C. on Synergy 2 plate reader (BioTech).
Assay [3] addresses unphosphorylated PDGFRβ kinase (uPDGFRβ, Seq. ID No. 3) (Homo sapiens, UniProt P09619). As to the kind of experiment: biochemical.
Assay [4] deals with T1, unphosphorylated c-FMS kinase (uFMS, Seq. ID no. 1) (Homo sapiens, UniProt P07333).
T1 sequence (P07333 538-972): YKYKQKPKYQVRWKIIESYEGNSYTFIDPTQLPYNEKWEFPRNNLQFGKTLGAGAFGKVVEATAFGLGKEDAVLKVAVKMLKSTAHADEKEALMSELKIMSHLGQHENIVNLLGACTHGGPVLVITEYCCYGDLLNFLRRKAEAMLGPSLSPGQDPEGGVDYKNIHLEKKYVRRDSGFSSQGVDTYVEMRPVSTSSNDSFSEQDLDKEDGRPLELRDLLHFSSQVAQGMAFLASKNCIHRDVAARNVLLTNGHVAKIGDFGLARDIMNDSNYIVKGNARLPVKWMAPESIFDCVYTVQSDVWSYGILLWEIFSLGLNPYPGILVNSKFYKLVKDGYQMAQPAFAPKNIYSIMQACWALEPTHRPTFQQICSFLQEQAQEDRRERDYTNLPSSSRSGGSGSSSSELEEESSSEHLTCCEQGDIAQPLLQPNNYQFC
The assay is described as follows: biochemical. Conditions: uFMS, enzymatic assay, ATP 500 μM.

The next assay concerns M-NFS-60 cells. The assay is described as follows: cells. The settings on record: 67 h, read-out: M-NFS-60 cell proliferation.
Where [5] appears, read: uKIT, enzymatic assay, ATP 2000 μM.
Where [6] appears, read: uPDGFRb, enzymatic assay, ATP 500 μM.

unphosphorylated PDGFRβ kinase (uPDGFRβ, Seq. ID No. 3), sequence (P09619 557-1106): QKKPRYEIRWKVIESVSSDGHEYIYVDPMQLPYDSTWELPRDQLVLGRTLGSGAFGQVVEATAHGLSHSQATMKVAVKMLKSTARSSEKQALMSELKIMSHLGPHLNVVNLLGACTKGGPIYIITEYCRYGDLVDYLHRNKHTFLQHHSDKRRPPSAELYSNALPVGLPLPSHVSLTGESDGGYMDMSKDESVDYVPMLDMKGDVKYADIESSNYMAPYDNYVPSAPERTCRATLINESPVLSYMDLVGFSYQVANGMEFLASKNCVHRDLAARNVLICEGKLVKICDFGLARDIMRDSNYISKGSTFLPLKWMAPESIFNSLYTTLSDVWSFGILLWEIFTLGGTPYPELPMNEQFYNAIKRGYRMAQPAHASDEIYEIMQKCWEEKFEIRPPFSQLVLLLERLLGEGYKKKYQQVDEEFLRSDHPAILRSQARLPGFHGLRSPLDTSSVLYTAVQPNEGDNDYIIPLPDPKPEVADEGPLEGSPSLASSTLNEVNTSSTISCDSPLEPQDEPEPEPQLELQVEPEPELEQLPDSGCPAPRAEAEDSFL
Experimental for M-NFS-60 cells: M-NFS-6 Cell Proliferation Assay
A serial dilution of test compound was dispensed into a 384-well black clear bottom plate (Corning, Corning, N.Y.). Two thousand five hundred cells were added per well in 50 μL complete growth medium. […] IC50 values were calculated from a series of percent inhibition values determined at a range of inhibitor concentrations using software routines as implemented in the GraphPad Prism software package.

For the molecule `Cc1nc(NC(=O)NC(=O)CC(C)(C)C(F)(F)F)ccc1Oc1ccnc(-c2cnn(C)c2)c1` [Example 47, 4,4,4-trifluoro-3,3-dimethyl-N-((6-methyl-5-((2-(1-methyl-1H-pyrazol-4-yl)pyridin-4-yl)oxy)pyridin-2-yl)carbamoyl)butanamide], the IC50 (in the assay on osteoclast precursors; in assay [1]) was 0.01 to 0.1 µM in each case.

For the molecule `Cc1cc(-c2cc(Oc3ccc(NC(=O)NC(=O)C(C)(C)C)nc3C)ccn2)ccn1` [Example 56, N-((6-methyl-5-((2′-methyl-[2,4′-bipyridin]-4-yl)oxy)pyridin-2-yl)carbamoyl)pivalamide], the IC50 in the assay on osteoclast precursors was 0.01 to 0.1 µM; in assay [2] (IC50 (nM) uKIT, Table 3) it was 3100 nM; in assay [2] (setting [5]), greater than 1000 nM; in assay [1], less than 0.01 µM; in assay [3] (IC50 (nM) uPDGFRβ, Table 3) it was 2800 nM; in assay [3] (setting [6]) it was greater than 1000 nM.

Take `Cc1cc(-c2cc(Oc3ccc(NC(=O)NC(=O)C(C)C)nc3C)ccn2)ccn1` [Example 79, N-((6-methyl-5-((2′-methyl-[2,4′-bipyridin]-4-yl)oxy)pyridin-2-yl)carbamoyl)isobutyramide]: the IC50 (in the assay on osteoclast precursors; in assay [1]) was less than 0.01 µM each time.

As to `Cc1ccc(-c2cc(Oc3ccc(NC(=O)NC(=O)C(C)(C)C)nc3C)ccn2)cn1` [Example 39, N-((6-methyl-5-((6′-methyl-[2,3′-bipyridin]-4-yl)oxy)pyridin-2-yl)carbamoyl)pivalamide], the IC50 (with osteoclast precursors; in assay [1]) was 0.01 to 0.1 µM each time.

For `CCc1nc(NC(=O)NC(=O)C2(OC)CC2)ccc1Oc1ccnc(-c2cnn(C)c2)c1` [Example 141, N-((6-ethyl-5-((2-(1-methyl-1H-pyrazol-4-yl)pyridin-4-yl)oxy)pyridin-2-yl)carbamoyl)-1-methoxycyclopropanecarboxamide], the IC50 is 0.01 to 0.1 µM in assay [4]; 0.1 to 1 µM with M-NFS-60 cells; 0.01 to 0.1 µM with osteoclast precursors; greater than 1000 nM in assay [2] (setting [5]); greater than 1000 nM in assay [3] (setting [6]).

Regarding `COC(C)(C)C(=O)NC(=O)Nc1ccc(Oc2ccnc(-c3cnn(C)c3)c2)cn1` [Example 55, 2-methoxy-2-methyl-N-((5-((2-(1-methyl-1H-pyrazol-4-yl)pyridin-4-yl)oxy)pyridin-2-yl)carbamoyl)propanamide], the results for the IC50 (in the assay with osteoclast precursors; in assay [1]) were less than 0.01 µM and 0.01 to 0.1 µM, respectively.

As for `CC(C)(C)C(=O)NC(=O)Nc1ccc(Oc2ccnc(-c3ccc(N)nc3)c2)cn1` [Example 106, N-((5-((6′-amino-[2,3′-bipyridin]-4-yl)oxy)pyridin-2-yl)carbamoyl)pivalamide], the IC50 in assay [4] was less than 0.01 µM; in the assay on M-NFS-60 cells it was less than 0.01 µM; in the assay with osteoclast precursors, less than 0.01 µM; in assay [2] (setting [5]) it was 100 to 1000 nM; in assay [3] (setting [6]), greater than 1000 nM.

Turning to `Cn1cc(-c2cc(Oc3ccc(NC(=O)NC(=O)C4(C(F)(F)F)CCC4)nc3)ccn2)cn1` [Example 101, N-((5-((2-(1-methyl-1H-pyrazol-4-yl)pyridin-4-yl)oxy)pyridin-2-yl)carbamoyl)-1-(trifluoromethyl)cyclobutanecarboxamide], the IC50 in assay [4] was less than 0.01 µM; with M-NFS-60 cells, less than 0.01 µM; in the assay with osteoclast precursors, 0.01 to 0.1 µM; in assay [2] (setting [5]), 100 to 1000 nM; in assay [3] (setting [6]), less than 10 nM.

As to `Cn1cc(-c2cc(Oc3ccc(NC(=O)NC(=O)C4(C)CCC4)nc3)ccn2)cn1` [Example 87, 1-methyl-N-((5-((2-(1-methyl-1H-pyrazol-4-yl)pyridin-4-yl)oxy)pyridin-2-yl)carbamoyl)cyclobutanecarboxamide], the IC50 in assay [4] is less than 0.01 µM; with M-NFS-60 cells, less than 0.01 µM; in the assay on osteoclast precursors, less than 0.01 µM; in assay [2] (setting [5]) it was 100 to 1000 nM; in assay [3] (setting [6]), 100 to 1000 nM.

Take `COC1(C(=O)NC(=O)Nc2ccc(Oc3ccnc(-c4cnc(C)s4)c3)cn2)CCCC1` [Example 149, 1-methoxy-N-((5-((2-(2-methylthiazol-5-yl)pyridin-4-yl)oxy)pyridin-2-yl)carbamoyl)cyclopentanecarboxamide]: the IC50 in assay [4] is less than 0.01 µM; with M-NFS-60 cells, 0.01 to 0.1 µM; in the assay on osteoclast precursors, 0.01 to 0.1 µM; in assay [2] (setting [5]), 100 to 1000 nM; in assay [3] (setting [6]), 100 to 1000 nM.

For `COC1(C(=O)NC(=O)Nc2ccc(Oc3ccnc(-c4cnc(C)s4)c3)cn2)CC1` [Example 155, 1-methoxy-N-((5-((2-(2-methylthiazol-5-yl)pyridin-4-yl)oxy)pyridin-2-yl)carbamoyl)cyclopropanecarboxamide], the IC50 in assay [4] is less than 0.01 µM; in the assay on M-NFS-60 cells, 0.01 to 0.1 µM; in the assay on osteoclast precursors, 0.01 to 0.1 µM; in assay [2] (setting [5]), 100 to 1000 nM; in assay [3] (setting [6]) it was greater than 1000 nM.

In the case of `Cc1cn(-c2cc(Oc3cnc(NC(=O)NC(=O)C(C)(C)C)cc3C)ccn2)cn1` [Example 148, N-((4-methyl-5-((2-(4-methyl-1H-imidazol-1-yl)pyridin-4-yl)oxy)pyridin-2-yl)carbamoyl)pivalamide], the IC50 in assay [4] is less than 0.01 µM; in the assay on M-NFS-60 cells, less than 0.01 µM; with osteoclast precursors it was 0.01 to 0.1 µM; in assay [2] (setting [5]), 10 to 100 nM; in assay [3] (setting [6]), greater than 1000 nM.

With `Cc1cc(NC(=O)NC(=O)C(C)C)ncc1Oc1ccnc(-c2cnn(C)c2)c1` [Example 88, N-((4-methyl-5-((2-(1-methyl-1H-pyrazol-4-yl)pyridin-4-yl)oxy)pyridin-2-yl)carbamoyl)isobutyramide], the IC50 was less than 0.01 µM in assay [4]; less than 0.01 µM with M-NFS-60 cells; less than 0.01 µM in the assay on osteoclast precursors; 10 to 100 nM in assay [2] (setting [5]); 100 to 1000 nM in assay [3] (setting [6]).

For the molecule `Cc1cn(-c2cc(Oc3ccc(NC(=O)NC(=O)C4CCOC4)nc3C)ccn2)cn1` (centres unmarked) [Example 136, N-((6-methyl-5-((2-(4-methyl-1H-imidazol-1-yl)pyridin-4-yl)oxy)pyridin-2-yl)carbamoyl)tetrahydrofuran-3-carboxamide], the IC50 was 0.1 to 1 µM in assay [4]; 0.1 to 1 µM with M-NFS-60 cells; 0.1 to 1 µM in the assay with osteoclast precursors; greater than 1000 nM in assay [2] (setting [5]); greater than 1000 nM in assay [3] (setting [6]).

As to `Cc1cc(-c2cc(Oc3ccc(NC(=O)NC(=O)C4CCOC4)nc3)ccn2)ccn1` (centres unmarked) [Example 85, N-((5-((2′-methyl-[2,4′-bipyridin]-4-yl)oxy)pyridin-2-yl)carbamoyl)tetrahydrofuran-3-carboxamide], the IC50 was 0.01 to 0.1 µM in assay [4]; 0.1 to 1 µM in the assay on M-NFS-60 cells; 0.01 to 0.1 µM with osteoclast precursors; greater than 1000 nM in assay [2] (setting [5]); greater than 1000 nM in assay [3] (setting [6]).

Turning to `Cc1cc(NC(=O)NC(=O)C(C)(C)C)nc(C)c1Oc1ccnc(-c2cnn(C)c2)c1` [Example 116, N-((4,6-dimethyl-5-((2-(1-methyl-1H-pyrazol-4-yl)pyridin-4-yl)oxy)pyridin-2-yl)carbamoyl)pivalamide], the IC50 was less than 0.01 µM in assay [4]; 0.01 to 0.1 µM in the assay on M-NFS-60 cells; 0.01 to 0.1 µM in the assay on osteoclast precursors; 10 to 100 nM in assay [2] (setting [5]); 10 to 100 nM in assay [3] (setting [6]).

In the case of `Cc1nc(NC(=O)NC(=O)C(C)(C)C)ccc1Oc1ccnc(-c2ccc(N3CCN(C)CC3)cc2)c1` [Example 118, N-((6-methyl-5-((2-(4-(4-methylpiperazin-1-yl)phenyl)pyridin-4-yl)oxy)pyridin-2-yl)carbamoyl)pivalamide], the IC50 is less than 0.01 µM in assay [4]; 0.01 to 0.1 µM with M-NFS-60 cells; 0.01 to 0.1 µM with osteoclast precursors; 10 to 100 nM in assay [2] (setting [5]); 100 to 1000 nM in assay [3] (setting [6]).

Take `Cc1ncc(-c2cc(Oc3ccc(NC(=O)NC(=O)C4(C)CCOCC4)nc3)ccn2)o1` [Example 163, 4-methyl-N-((5-((2-(2-methyloxazol-5-yl)pyridin-4-yl)oxy)pyridin-2-yl)carbamoyl)tetrahydro-2H-pyran-4-carboxamide]: the IC50 in assay [4] is 0.01 to 0.1 µM; in the assay with M-NFS-60 cells, 0.01 to 0.1 µM; in the assay on osteoclast precursors, 0.01 to 0.1 µM; in assay [2] (setting [5]), 100 to 1000 nM; in assay [3] (setting [6]) it was greater than 1000 nM.

With `CCC(=O)NC(=O)Nc1ccc(Oc2ccnc(-c3ccc(C)nc3)c2)cn1` [Example 108, N-((5-((6′-methyl-[2,3′-bipyridin]-4-yl)oxy)pyridin-2-yl)carbamoyl)propionamide], the IC50 in assay [4] was 0.01 to 0.1 µM; in the assay with M-NFS-60 cells it was greater than 1 µM; in the assay on osteoclast precursors it was 0.01 to 0.1 µM; in assay [2] (setting [5]), greater than 1000 nM; in assay [3] (setting [6]), greater than 1000 nM.

Regarding `Cn1cc(-c2cc(Oc3ccc(NC(=O)NC(=O)C4CC5CCC4CC5)nc3)ccn2)cn1` (centres unmarked) [Example 74, N-((5-((2-(1-methyl-1H-pyrazol-4-yl)pyridin-4-yl)oxy)pyridin-2-yl)carbamoyl)bicyclo[2.2.2]octane-2-carboxamide], the IC50 is less than 0.01 µM in assay [4]; less than 0.01 µM with M-NFS-60 cells; 0.01 to 0.1 µM with osteoclast precursors; less than 10 nM in assay [2] (setting [5]); 10 to 100 nM in assay [3] (setting [6]).
